{"source": "patent US4329347A", "about": "“Cardiotonic and antithrombotic sulfur-containing derivatives of carbostyril” (Boehringer Ingelheim GmbH, priority 1978, dated 1982)", "key": {"[1]": {"test_system": "Platelet Thromboses in the Rat", "experiment": "Influence on platelet thromboses in the rat (electrical irritation of a vein)", "assay_type": "in vivo", "settings": "male rats, five animals per dose, 20 minutes observation, vs. untreated group; dose not given", "method": "Literature: H. Poliwoda, J. Lilli, G. Hagemann, D. Schyma: Z. ges. exp. Med., 145, 252 (1968)\nMale rats (body weight between 70 and 90 grams) received an intraperitoneal Nembutal anesthesia (dose: 50 to 60 mg/kg). To avoid hypothermia, they were positioned on a heated test table (about 37° C.). The respiratory passage was held free by insertion of a tracheal cannula.\nAfter a transverse abdominal incision was made, an intestinal loop was exposed and fixed, and a vein, with a diameter of about 300 μ was prepared. A monopolar platinum electrode embedded in glass and having a tip diameter of about 100μ was applied to the vein as an irritating cathode. The indifferent electrode was applied to the same vessel opposite the cathode. The irritation was provoked by 150 volts of direct current for a period of 100 milliseconds. After the irritation, the area of observation was continuously rinsed with warm (37° C.) physiological salt solution.\nThe formation and growth of the thrombosis was followed under a binocular microscope over a time period of 20 minutes. During the entire period of observation, the percentage of the vessel volume closed by the thrombosis was estimated at different time intervals.\nFive animals per dose were used, and the results were averaged.\nIn the test compound experiments, the average size of the thrombosis in the treated animal group was compared with that of an untreated animal group. The result was given as \"percentage reduction of the average thrombosis size.\" The following table contains the values obtained."}, "Acute toxicity, oral": {"experiment": "Acute toxicity, oral", "assay_type": "in vivo", "settings": "mouse, in vivo; mice, single oral dose, 14 days observation; read-out: Acute Toxicity per os", "method": "(§1) The acute toxicity of the test compounds was determined on groups of 10 mice each after oral administration of a single dose of 1,000 mg/kg (observation time: 14 days)."}, "mice": {"test_system": "mice", "experiment": "Acute toxicity, oral", "assay_type": "in vivo", "settings": "single oral dose of 1,000 mg/kg, 14 days observation", "method": "as §1"}, "[2]": {"test_system": "thrombocyte aggregation in platelet-rich plasma of healthy human donors", "experiment": "Thrombocyte aggregation inhibiting activity by the method of Born and Cross (platelet-rich plasma)", "assay_type": "cell-based", "settings": "optical density", "method": "1. Determination of the thrombocyte aggregation inhibiting activity by the method of Born and Cross [J. Physiol. 170, 397 (1964)]:\nThe thrombocyte aggregation was measured in the platelet-rich plasma of healthy human donors. The decrease in optical density was measured and recorded photometrically after the addition of adenosine diphosphate or collagen. From the angle of inclination of the density curve, the rate of aggregation was estimated (Vmax). The optical density was taken as the point on the curve where the most light was transmitted (O.D.).\nThe EC50 values in the tables indicate the optical density.\nSmall doses of collagen were chosen, but sufficient to give irreversible aggregation. To provoke maximum aggregation, about 0.01 ml of the collagen solution was added to 1 ml of platelet-rich plasma. (Commercial collagen of Hormonchemie, Munich). The adenosine diphosphate (ADP) doses were chosen to give only the first phase of the BORN curve. The necessary amount of ADP was about 1×10^-6 mol/l. Commercial ADP of Boehringer Mannheim was used.\nThe substance dose which produced a 50% inhibition of the thrombozytes aggregation (EC50) was determined graphically."}, "[3]": {"test_system": "thrombocytes (number in the blood after tumor cell injection)", "experiment": "Effect on tumor cell embolism: thrombocyte decrease after intravenous tumor cell injection in rats", "assay_type": "in vivo", "settings": "control 70", "description": "(b) By virtue of the injection of tumor cells, a strong decrease in the number of thrombocytes in the blood was produced in the test animals (rats) as a consequence of thrombocyte and tumor cell thrombocyte aggregation. […] By administration of suitable substances, the extent of the thrombocyte decrease can be reduced as compared to that of the untreated control animals."}, "auricles (rat heart)": {"test_system": "auricles (rat heart)", "experiment": "Positive inotropic activity on isolated rat auricles", "parameters": "species or system rats", "settings": "1×10^-5 gm/ml, 30° C., from the starting values, read-out: % Increase in Force of Contraction", "method": "Rats were anesthetized with ether and subsequently killed by a blow on the neck. After opening the thorax, the heart was removed and both auricles were separated. The auricles were put into an organ bath of 100 ml containing a tyrode solution at a temperature of 30° C. The tyrode solution was infused with carbogen (95% of O2 and 5% of CO2). The spontaneous contractions of the auricles were registered isometrically. The auricles were weighted with 1 gm. The compounds in question were tested on 4 auricles each at 1×10^-5 gm/ml. The alteration of the contraction force was registered in % from the starting values."}, "[4]": {"test_system": "phosphodiesterase (PDE), supernatant of human blood platelets", "experiment": "PDE inhibition (3H-cAMP hydrolysis)", "assay_type": "biochemical", "settings": "human blood platelet PDE, 1 μmol/liter 3H-cAMP, pH 7.4, 15 minutes, 37° C.", "method": "cAMP is hydrolysed to AMP by phosphodiesterase (PDE) from various sources, including blood platelets. This hydrolysis is inhibited by PDE inhibitors according to the concentration.\nThe phosphodiesterase used was the 10,000×g supernatant of human blood platelets which had been frozen with water and thawed out again.\nAn amount of 0.3 ml of a mixture which contained 0.1 mole/liter of trihydroxy-aminomethane (pH 7.4), 3 mmole/liter of magnesium chloride, 1 mmole/liter of AMP, 1 μmol/liter of ^3 H-cAMP (specific activity about 10 MBq/μmol), PDE as well as the substance to be tested and water for the control were incubated for 15 minutes at 37° C.\nThe incubation was stopped by the addition of 0.5 ml of zinc sulfate (0.266 mole/liter) and 0.5 ml of barium hydroxide (0.266 mole/liter), the precipitate was centrifuged and the activity remaining in the supernatant of the unreacted ^3 H-cAMP was determined. From a comparison of the substance preparations and the control preparations, the concentration for a 50% inhibiting activity (IC50) of the respective substance was calculated."}, "conscious mice": {"test_system": "conscious mice", "experiment": "Prolongation of the bleeding time (mouse tail)", "assay_type": "in vivo", "settings": "po, 10 mg/kg orally, after 1 hour, compared to control group, read-out: Prolongation of the bleeding time in % after one hour", "method": "The function of the thrombocytes can be determined by measuring the bleeding time. The normal bleeding time in human beings is in the range of 1 to 3 minutes and needs intact thrombozytes in a sufficient number. If the number of thrombocytes is normal and the bleeding time is prolonged, this signifies a disturbed function of the thrombocytes. This is found in some congenital defects of thrombocyte function (V. Willebrand's disease, for example). If, on the other hand it is the aim to prevent spontaneous aggregation of the thrombocytes and occlusion in the arterial system by antithrombotic drugs, the bleeding time should be prolonged as a consequence. Therefore, using antithrombotic substances, a prolongation of the bleeding time is expected. If the plasma coagulation system is not influenced by such a medicine, coagulation tests will give a normal result.\nTo measure the bleeding time, 10 mg/kg of the test compound is administered orally to conscious mice. After 1 hour, 0.5 mm of the tip of the mousetail is cut off and droplets of blood are gently removed with filter paper every 30 second. The number of drops of blood give a measure for the bleeding time (5 animals/experiment).\nThe numbers in the following table represent the prolongation in % compared to the control group."}, "[5]": {"test_system": "Walker-256 carcinosarcoma cells", "experiment": "Effect on tumor cell embolism: mortality after injection of Walker-256 carcinosarcoma cells in mice", "assay_type": "in vivo", "method": "(a) Mice having a body weight of about 25 grams received an injection in the jugular vein of a million Walker-256 carcinosarcoma cells. These tumor cells lead to a formation of thrombocyte clumps, which causes a fatal tumor cell embolism in a portion of the animals. Under the influence of the test compounds, the number of deceased animals can be reduced. Normally, about 65% of the control animals died within 10 minutes as a result of pulmonary embolism."}, "[6]": {"settings": "ADP-induced (about 1×10^-6 mol/l), read-out: EC50 (50% inhibition of thrombocyte aggregation), ADP"}, "[7]": {"settings": "collagen-induced, read-out: EC50 (50% inhibition of thrombocyte aggregation), Collagen"}}, "note": "Like-named read-outs stand apart in the source and are kept apart here.", "data": [{"smiles": "O=c1ccc2cc(OCCCCS(=O)(=O)c3ccccn3)ccc2[nH]1", "note": "[T, 6-[4-(2-Pyridyl-sulfonyl)-butoxy]-carbostyril]", "values": [{"measurement": "Percentage Reduction of the Average Thrombosis Size", "setting": "[1]", "result": 29, "unit": "%"}, {"measurement": "LD50 at 336 h", "setting": "Acute toxicity, oral", "result": "> 1000", "unit": "mg/kg"}, {"measurement": "animals died (acute toxicity per os)", "setting": "mice", "result": "0 out of 10 animals"}, {"measurement": "EC50", "setting": "[2]; [6]", "result": 6000, "unit": "nM"}, {"measurement": "EC50", "setting": "[2]; [7]", "result": 100, "unit": "nM"}, {"measurement": "% Reduction of the Number of Thrombocytes", "setting": "[3]; dose 2 mg/kg", "result": 29, "unit": "%"}, {"measurement": "% Reduction of the Number of Thrombocytes", "setting": "[3]; dose 4 mg/kg", "result": 15, "unit": "%"}, {"measurement": "% Reduction of the Number of Thrombocytes", "setting": "[3]; dose 8 mg/kg", "result": 1.1, "unit": "%"}, {"measurement": "activation at 10 µg/mL", "setting": "auricles (rat heart)", "result": 32, "unit": "%"}, {"measurement": "IC50", "setting": "[4]", "result": 1000, "unit": "nM"}, {"measurement": "change in vivo at 10 mg/kg", "setting": "conscious mice", "result": 5, "unit": "%"}, {"measurement": "Percentage of Deceased Animals", "setting": "[5]; 2 mg/kg p.o.", "result": 23, "unit": "%"}, {"measurement": "Percentage of Deceased Animals", "setting": "[5]; 6 mg/kg p.o.", "result": 6.7, "unit": "%"}]}, {"smiles": "O=C1CCc2cc(OCCCC[S+]([O-])c3ccc(Cl)c(Cl)c3)ccc2N1", "note": "(stereo not shown) [U, 6-[4-(3,4-Dichlorophenyl-sulfinyl)-butoxy]-3,4-dihydro-carbostyril]", "values": [{"measurement": "Percentage Reduction of the Average Thrombosis Size", "setting": "[1]", "result": 32, "unit": "%"}, {"measurement": "LD50 at 336 h", "setting": "Acute toxicity, oral", "result": "> 1000", "unit": "mg/kg"}, {"measurement": "animals died (acute toxicity per os)", "setting": "mice", "result": "0 out of 10 animals"}, {"measurement": "EC50", "setting": "[2]; [6]", "result": 15000, "unit": "nM"}, {"measurement": "EC50", "setting": "[2]; [7]", "result": 4000, "unit": "nM"}, {"measurement": "% Reduction of the Number of Thrombocytes", "setting": "[3]; dose 2 mg/kg", "result": 34, "unit": "%"}, {"measurement": "% Reduction of the Number of Thrombocytes", "setting": "[3]; dose 6 mg/kg", "result": 20.8, "unit": "%"}, {"measurement": "% Reduction of the Number of Thrombocytes", "setting": "[3]; dose 18 mg/kg", "result": 1.1, "unit": "%"}, {"measurement": "IC50", "setting": "[4]", "result": 270, "unit": "nM"}, {"measurement": "change in vivo at 10 mg/kg", "setting": "conscious mice", "result": 33, "unit": "%"}, {"measurement": "Percentage of Deceased Animals", "setting": "[5]; 2 mg/kg p.o.", "result": 40, "unit": "%"}, {"measurement": "Percentage of Deceased Animals", "setting": "[5]; 6 mg/kg p.o.", "result": 13, "unit": "%"}]}]}
